PMC6722685, “A Novel Marine Natural Product Derived Pyrroloiminoquinone with Potent Activity against Skin Cancer Cells” (Marine Drugs, 2019)

Key:
[1] = system: HaCaT cells; assay: MTT assay for cell viability, HaCaT cells; format: cell-based; conditions: 24 h treatment, normal human keratinocytes, mean ± SD, n = 4
Protocol: (§1) We first investigated the dose-dependent effects of all five compounds on the cell viability of human skin cancer cell line, SCC13 as well as an immortalized human skin keratinocyte cell line, HaCaT through MTT assay. […] IC50 and IC90 values for these compounds against these two cell lines were calculated (Table 1). There were statistically significant differences between these two values with p < 0.05.
(§2) All cell lines were seeded on a 96-well cell culture plate at 2 × 10^5 cells per well. After 24 h, the cells were treated with increasing doses of the compounds (0, 0.0625 μM, 0.125 μM, 0.25 μM, 0.5 μM, 1.0 μM). After incubation for 24 h, the medium was removed and 100 μL of MTT solution (500 µg/mL) in PBS was added and kept for 4 h at 37 °C. The formazan crystals thus formed were dissolved in DMSO and the optical density (OD) was measured at 570 nm using a microplate reader (BioTek Synergy H1 Plate Reader, Winooski, VT, USA).

[2] = system: SCC13 cells; assay: MTT assay for cell viability, SCC13 cells; format: cell-based, human; conditions: for IC50 / IC90: Homo sapiens, SCC-13, MTT, 24 h treatment, mean ± SD, n = 4; for IC50: read-out: SSC13 Cells IC50 ± SD; for IC90: read-out: SSC13 Cells IC90 ± SD
Protocol: as §1, §2

[3] = system: beclin-1; assay: Western blot, beclin-1 expression in SCC13 cells; format: cell-based, human; conditions: SCC13 cells, 0.25, 0.5 and 1 µM, 24 h
Protocol: (§3) Figure 5 Effect of C278 on apoptotic and autophagy related proteins in SCC13 cells. SCC13 cells were treated with 0.1% DMSO and 0.25, 0.5 and 1 µM of C278 for 24 h. The cells were then lysed in cell lysis buffer and protein was estimated. Western blot was performed to estimate the level of expression for human Bcl2, Cleaved-PARP and Beclin-1. The expression of these proteins was normalized using β-Actin as a loading control. Figures are representatives of 2 independent experiments. Bands were analyzed densiometrically and bar graphs expressing arbitrary units are presented adjacent to the western blot. Error bar represents mean ± SD, n = 4. * p < 0.01. ** p < 0.001.
(§4) SCC13 cells (1–2 × 10^6) cultured in 6-well culture plate were treated with different concentrations of C278 for 24 h. Cells were then lysed in cell lysis buffer containing protease inhibitor cocktail and the protein concentrations in the cleared supernatants were estimated using the bicinchoninic acid (BCA) protein assay. The cell lysates were resolved by 10% SDS-PAGE and transferred to nitrocellulose membrane (BioRad, Hercules, CA, USA). […] Membranes were then washed three times with wash buffer (TBS containing 0.5% Tween), and then incubated with horseradish peroxidase (HRP)-conjugated secondary Ab and detected by enhanced chemiluminescence (ECL) detection system according to the manufacturer’s instructions.

[4] = system: Bcl-2; assay: Western blot, Bcl-2 expression in SCC13 cells; format: cell-based, human; conditions: SCC13 cells, 0.25, 0.5 and 1 µM, 24 h
Protocol: as §3, §4

[5] = system: cleaved-PARP; assay: Western blot, cleaved-PARP in SCC13 cells; format: cell-based, human; conditions: SCC13 cells, 0.25, 0.5 and 1 µM, 24 h
Protocol: as §3, §4

[6] = system: proliferating cell nuclear antigen (PCNA); assay: Western blot, PCNA expression in SCC13 cells; format: cell-based, human; conditions: 24 h, dose-dependent
Protocol: Figure 3 Effects of C278 on the viability of SCC13 and HaCaT cells (A) SCC13 cells were treated with increasing concentrations of C278 at 24 h, and the percentage cell viability was estimated. Results are combined from two independent experiments and are presented as mean ± SD; n = 4. (B) HaCaT cells were treated with increasing concentrations of C278 at 24 h, and the percentage cell viability was estimated. Results are combined from two independent experiments and are presented as mean ± SD; n = 4. (C) Expression of PCNA was measured through western blot. The expression of this protein was normalized using β-Actin as a loading control. Figures are representatives of 2 independent experiments. (D) Densiometric analysis of bands was performed and the bar graphs expressing arbitrary units are presented. Error bar represents mean ± SD, n = 4. * p < 0.01, ** p < 0.001, *** p < 0.0001.
SCC13 cells (1–2 × 10^6) cultured in 6-well culture plate were treated with different concentrations of C278 for 24 h. […] Membranes were then washed three times with wash buffer (TBS containing 0.5% Tween), and then incubated with horseradish peroxidase (HRP)-conjugated secondary Ab and detected by enhanced chemiluminescence (ECL) detection system according to the manufacturer’s instructions.

[7] = system: SCC13 cells; assay: Wound healing (cell migration) assay; format: cell-based, human; conditions: 24 h, control group 93.37 ± 3.35
Protocol: Figure 4 Effect of C278 on migration and invasion ability of the SCC13 cells. (A) SCC13 cells were allowed to proliferate in a 24-well plate until reaching confluency. A scratch was made on the plate using a pipette tip. The unattached cells were washed off. The cells were then treated with either 0.1% DMSO or two doses of C278 (0.5 µM and 1.0 µM) and incubated for 24 h. The images were captured at the time of drug treatment and after 24 h of incubation through a light microscope. (Scale bar: 200 µM). (B) Percent wound closure was measured using Image J software and plotted in bar graphs. Results are combined from two independent experiments and presented as mean ± SD; n = 4. (C) SCC13 cells were seeded in the invasion chambers and incubated for 4 h. Now the cells were treated either with 0.1% DMSO or two doses of C278 (0.5 µM and 1.0 µM) for 24 h. The cells from the upper surface of the membrane were removed with cotton swabs. The invaded cells, which were in the lower surface of the membrane, were stained with crystal violet. Images of the invaded cells were captured using a light microscope. (D) The average number of cells invaded was counted in each group and plotted in bar graphs. […]
SCC13 cells were seeded on 24-well cell culture plate at a density of 2 × 10^5 cells/well and cultured until cells were confluent. […] Percent change in wound area was measured by Image J software.

[8] = system: SCC13 cells; assay: Cell invasion (trans-well, Matrigel) assay; format: cell-based, human; conditions: 24 h, control group 56.50 ± 4.95%
Protocol: Figure 4 Effect of C278 on migration and invasion ability of the SCC13 cells. (A) SCC13 cells were allowed to proliferate in a 24-well plate until reaching confluency. A scratch was made on the plate using a pipette tip. The unattached cells were washed off. The cells were then treated with either 0.1% DMSO or two doses of C278 (0.5 µM and 1.0 µM) and incubated for 24 h. The images were captured at the time of drug treatment and after 24 h of incubation through a light microscope. (Scale bar: 200 µM). (B) Percent wound closure was measured using Image J software and plotted in bar graphs. Results are combined from two independent experiments and presented as mean ± SD; n = 4. (C) SCC13 cells were seeded in the invasion chambers and incubated for 4 h. Now the cells were treated either with 0.1% DMSO or two doses of C278 (0.5 µM and 1.0 µM) for 24 h. The cells from the upper surface of the membrane were removed with cotton swabs. The invaded cells, which were in the lower surface of the membrane, were stained with crystal violet. Images of the invaded cells were captured using a light microscope. (D) The average number of cells invaded was counted in each group and plotted in bar graphs. Results are presented as mean ± SD; n = 4. * p < 0.01, ** p < 0.001, *** p < 0.0001. […]

| Structure (SMILES) | IC50 [1] | IC90 [1] | IC50 [2] | IC90 [2] | expression of beclin-1 [3] | expression of Bcl-2 protein [4] | production of cleaved-PARP [5] | expression of PCNA [6] | Percent wound closure ([7]; 0.5 μM) | Percent wound closure ([7]; 1.0 μM) | number of invasive cells ([8]; 0.5 μM) | number of invasive cells ([8]; 1.0 μM) | selectivity for killing SCC13 cells compared to HaCaT cells ([2]; SCC13 vs HaCaT) |
| --- | --- | --- | --- | --- | --- | --- | --- | --- | --- | --- | --- | --- | --- |
| O=C1C(NCCc2ccc3c(c2)OCO3)=CC2=NCCc3c[nH]c1c32 [Compound C238] | 2.35 ± 0.21 µM | 4.23 ± 0.36 µM | 0.82 ± 0.02 µM | 1.48 ± 0.04 µM | – | – | – | – | – | – | – | – | – |
| Cc1ccc(S(=O)(=O)n2cc3c4c2C(=O)C(NCc2ccccc2)=CC4=NCC3)cc1 [Compound C11] | 0.48 ± 0.01 µM | 0.87 ± 0.03 µM | 0.51 ± 0.03 µM | 0.92 ± 0.06 µM | – | – | – | – | – | – | – | – | – |
| Cc1ccc(S(=O)(=O)n2cc3c4c2C(=O)C(NCCc2ccc5c(c2)OCO5)=CC4=NCC3)cc1 [Compound C15] | 0.73 ± 0.09 µM | 1.32 ± 0.16 µM | 5.31 ± 0.19 µM | 9.56 ± 0.35 µM | – | – | – | – | – | – | – | – | – |
| O=C1C(NCc2cccs2)=CC2=NCCc3c[nH]c1c32 [Compound C278] | 1.15 ± 0.21 µM | 2.07 ± 0.37 µM | 0.5 ± 0.11 µM | 0.9 ± 0.21 µM | increased in a dose-dependent manner | significantly downregulated | increased in a dose-dependent manner | downregulation | 69.06 ± 2.91% | 39.53 ± 2.17% | 32.00 ± 4.24% | 19.50 ± 4.95% | two-fold |
| Cc1ccc(S(=O)(=O)n2cc3c4c2C(=O)C(NCc2ccco2)=CC4=NCC3)cc1 [Compound C45] | 5.24 ± 0.08 µM | 9.43 ± 0.15 µM | 2.58 ± 0.23 µM | 4.65 ± 0.42 µM | – | – | – | – | – | – | – | – | – |
